The source of these data is patent publication US6515103B1 (priority 1996, dated 2003).

One data set has as its target NMDA receptor. The class given is binding.
A further data set is described as follows: in vitro. As to conditions: Frings audiogenic, mouse.

pIC50: −log10 of the molar value. Where a SMILES comes first, the peptide text is derived from it. [ ]: non-standard residue; d: D form. Gla = N[C@@H](CC(C(=O)O)C(=O)O)C(=O)O

By pIC50 is commonly meant the IC50 on a negative log10 scale, so that one unit is a factor of ten. For the compound `CC[C@H](C)[C@H](NC(=O)[C@H](CC(C)C)NC(=O)[C@H](C)NC(=O)[C@H](CCC(N)=O)NC(=O)[C@H](CC(N)=O)NC(=O)[C@H](C)NC(=O)[C@H](CCC(N)=O)NC(=O)[C@H](CC(C)C)NC(=O)[C@H](CC(C(=O)O)C(=O)O)NC(=O)[C@H](CC(C(=O)O)C(=O)O)NC(=O)[C@H](CCC(=O)O)NC(=O)CN)C(N)=O` [(A^7,10)1-12] (H-GE[Gla][Gla]LQANQALI-NH2; N-terminus assumed), the pIC50 against NMDA receptor was 6.52.
At NMDA receptor, `CC[C@H](C)[C@H](NC(=O)[C@H](CC(C)C)NC(=O)[C@H](C)NC(=O)[C@H](CCC(N)=O)NC(=O)[C@H](CC(N)=O)NC(=O)[C@H](C)NC(=O)[C@H](CCC(N)=O)NC(=O)[C@H](CC(C)C)NC(=O)[C@H](CC(C(=O)O)C(=O)O)NC(=O)[C@H](CC(C(=O)O)C(=O)O)NC(=O)[C@H](CCC(=O)O)NC(=O)CN)C(=O)N[C@@H](CCCNC(=N)N)C(N)=O` [(A^7,10)1-13] (H-GE[Gla][Gla]LQANQALIR-NH2; N-terminus assumed) had a negative-log IC50 (pIC50) of 6.60. This pIC50 and that of the compound before are within 0.2 log units of each other.
The same measure, in the same setting: the value for `CC[C@H](C)[C@H](NC(=O)[C@H](CC(C)C)NC(=O)[C@H](Cc1ccc(O)cc1)NC(=O)[C@H](CCC(N)=O)NC(=O)[C@H](CC(N)=O)NC(=O)[C@H](C)NC(=O)[C@H](CCC(N)=O)NC(=O)[C@H](CC(C)C)NC(=O)[C@H](CC(C(=O)O)C(=O)O)NC(=O)[C@H](CC(C(=O)O)C(=O)O)NC(=O)[C@H](CCC(=O)O)NC(=O)CN)C(=O)N[C@@H](CCCNC(=N)N)C(=O)N[C@@H](CC(C(=O)O)C(=O)O)C(=O)N[C@@H](CCCCN)C(=O)N[C@@H](CO)C(=O)N[C@@H](CC(N)=O)C(N)=O` [A^7,Y^10] (H-GE[Gla][Gla]LQANQYLIR[Gla]KSN-NH2; N-terminus assumed) was 7.10.
For orientation: half-life means how long it takes for the measured level to halve. The low end stands for rapid decline, the high end for slow decline. On to `CC[C@H](C)[C@H](NC(=O)[C@H](CC(C)C)NC(=O)[C@H](CCC(=O)O)NC(=O)[C@H](CCC(N)=O)NC(=O)[C@H](CC(N)=O)NC(=O)[C@H](CCC(=O)O)NC(=O)[C@H](CCC(N)=O)NC(=O)[C@H](CC(C)C)NC(=O)[C@H](CCC(=O)O)NC(=O)[C@H](CCC(=O)O)NC(=O)[C@H](CCC(=O)O)NC(=O)CN)C(=O)N[C@@H](CCCNC(=N)N)C(=O)N[C@@H](CCC(=O)O)C(=O)N[C@@H](CCCCN)C(=O)N[C@@H](CO)C(=O)N[C@@H](CC(N)=O)C(N)=O` [ECon G], for which the half-life in “in vitro” (brain homogenate) is 1.6 min; in the data set “in vitro” (tissue homogenate), 0.425 min.
Consider `CC[C@H](C)[C@H](NC(=O)[C@H](CC(C)C)NC(=O)[C@H](CC(C(=O)O)C(=O)O)NC(=O)[C@H](CCC(N)=O)NC(=O)[C@H](CC(N)=O)NC(=O)[C@H](CC(C(=O)O)C(=O)O)NC(=O)[C@H](CCC(N)=O)NC(=O)[C@H](CC(C)C)NC(=O)[C@H](CCC(=O)O)NC(=O)[C@H](CC(C(=O)O)C(=O)O)NC(=O)[C@H](CCC(=O)O)NC(=O)CN)C(=O)N[C@@H](CCCNC(=N)N)C(=O)N[C@@H](CC(C(=O)O)C(=O)O)C(=O)N[C@@H](CCCCN)C(=O)N[C@@H](CO)C(=O)N[C@@H](CC(N)=O)C(N)=O` [E^4], for which the pIC50 at NMDA receptor was not above 4.70.
